BindingDB's records for doi:10.1021/jm950817g (Institute, 1996)

Experiment: Activity was evaluated by inhibition of the binding of 1 nM [3H]DPDPE at Opioid receptor delta 1 binding site

Compound	Ki
COC[C@]12Cc3ccc(O)cc3[C@](C)(CCc3nnnn31)C2 [1-methoxymethyl-9-methyl-(1S,9R)-2,3,4,5-tetraazatetracyclo[7.7.1.02,6.010,15]heptadeca-3,5,10(15),11,13-pentaen-12-ol]	> 10 µM
CN1CNC2CCC3(C)CC2(Cc2ccc(O)cc23)C1 (stereo unspecified) [3,9-dimethyl-3,5-diazatetracyclo[7.7.1.01,6.010,15]heptadeca-10,12,14-trien-12-ol]	0.863 µM
CN1CC23Cc4ccc(O)cc4C(C)(CCC12)C3 (stereo unspecified) [9,13-dimethyl-13-azatetracyclo[7.5.1.01,12.03,8]pentadeca-3,5,7-trien-6-ol]	> 10 µM
CNC1CCC2(C)CC1(CO)Cc1ccc(O)cc12 (stereo unspecified) [9-Hydroxymethyl-1-methyl-10-methylamino-tricyclo[7.3.1.0*2,7*]trideca-2,4,6-trien-4-ol]	> 1000 µM
CNCC12Cc3ccc(O)cc3C(C)(CCC1N)C2 (stereo unspecified) [10-Amino-1-methyl-9-methylaminomethyl-tricyclo[7.3.1.0*2,7*]trideca-2,4,6-trien-4-ol]	0.459 µM
CC12CCC(N)C(CO)(Cc3ccc(O)cc31)C2 (stereo unspecified) [10-Amino-9-hydroxymethyl-1-methyl-tricyclo[7.3.1.0*2,7*]trideca-2,4,6-trien-4-ol]	> 1000 µM
COCC12Cc3ccc(O)cc3C(C)(CCC1N)C2 (stereo unspecified) [10-Amino-9-methoxymethyl-1-methyl-tricyclo[7.3.1.0*2,7*]trideca-2,4,6-trien-4-ol]	0.467 µM
CN(C)C1CCC2(C)CC1(C)Cc1ccc(O)cc12 (stereo unspecified) [10-Dimethylamino-1,9-dimethyl-tricyclo[7.3.1.0*2,7*]trideca-2,4,6-trien-4-ol]	10 µM
CN(C)C1CCC2(C)CC1(CO)Cc1ccc(O)cc12 (stereo unspecified) [10-Dimethylamino-9-hydroxymethyl-1-methyl-tricyclo[7.3.1.0*2,7*]trideca-2,4,6-trien-4-ol]	> 1000 µM
COCC12Cc3ccc(O)cc3C(C)(CCC1N(C)C)C2 (stereo unspecified) [10-Dimethylamino-9-methoxymethyl-1-methyl-tricyclo[7.3.1.0*2,7*]trideca-2,4,6-trien-4-ol]	1.4 µM
COC[C@]12Cc3ccc(O)cc3[C@](C)(CCCN1C)C2 [(1R,9R)-9-Methoxymethyl-1,10-dimethyl-10-aza-tricyclo[7.4.1.0*2,7*]tetradeca-2(7),3,5-trien-4-ol]	> 5 µM
